Data as given in patent publication US20250375503A1, “Method and System for Tuning Hormone Receptors through the Dynamic Intravenous Delivery of a Hormone According to a Target Physiological Cadence” (Well Cell Global LLC, priority 2024, published 2025).

Test system: human kidney
Test: periodic infusion of insulin into a perfused, extracted three-day-old human kidney (similar to PIR treatment)
Source text: For example, using a three-day-old human kidney that was extracted or otherwise removed from the human body, after a control period, the kidney was augmented with a periodic infusion of insulin for approximately two hours at a concentration similar to the amount of insulin projected to be seen by a kidney in situ in a person who would receive physiological insulin resensitization (PIR) treatment.
The perfusate was sampled before and after passing through the kidney at five-to-fifteen-minute intervals to determine if glucose was being removed and to determine any changes in electrolytes, such as sodium and potassium.
The ability of the kidney to generate and excrete urine was monitored via a catheter attached to a ureter.
Two-millimeter punch biopsies were examined approximately every fifteen minutes with a specialized Acquyre Biosciences microscope that produces pseudo-colored images at a cellular level that reflect the extent of intracellular organellar movement. Intracellular movement is dependent on the availability of cytoplasmic ATP (adenosine triphosphate).

## insulin
Monitored via catheter attached to a ureter, after about one hour of treatment, no excretion during control period
  ability of the kidney to generate and excrete urine: the kidney began to excrete urine
Perfusate sampled before and after passing through the kidney at five-to-fifteen-minute intervals, periodic insulin infusion for approximately two hours, versus control period
  glucose ingested by the kidney from the perfusate: well in excess of the control level
Perfusate sampled before and after passing through the kidney, periodic insulin infusion, versus control period
  alteration of electrolyte concentrations (sodium, potassium) in the perfusate: better alter the electrolyte concentrations in a manner similar to a kidney in situ
two-millimeter punch biopsies, Acquyre Biosciences microscope, after approximately thirty minutes of perfusion, relative to control period
  intracellular organellar movement in punch biopsies (reflects cytoplasmic ATP): obvious increase in intracellular movement relative to the control period
